Test results published in PubChem BioAssay AID1996.
Values after ≈ are worked out from the molar mass of the structure shown.

Details: buffer; pH 7.4; 200.0 µM

SMILES	solubility kinetic [µg/mL]
CC(=O)c1cc(C#N)c(N2CCN(c3ccccc3)CC2)nc1C	0.2 (≈ 0.624 µM)
CN1CC2([N+](=O)[O-])CC=C(Cl)C([N+](=O)[O-])(C1)C2 (stereo not given)	> 39.3
O=C(COC(=O)c1ccc(F)cc1)NCC1COc2ccccc2O1 (stereo not given)	> 51.8
CCc1ccc(-c2nc(CS(=O)CC(=O)O)c(C)o2)cc1 (stereo not given)	46 (≈ 150 µM)
O=C(NCCCn1ccnc1)C(=O)c1c[nH]c2ccccc12	> 44.4
CC(C)Nc1nc2nonc2nc1Nc1ccccc1	> 40.5
O=C(CN1CCN(c2cccc(Cl)c2)CC1)NCc1ccccc1	42.5 (≈ 124 µM)
COc1cc(Cl)c(C)cc1NC(=O)CN1CCCCCC1	< 0.3
CC(=O)Nc1ccc(C(=O)N2CCCc3ccccc32)cc1	> 44.2
CN(C)C(=O)COc1ccc2c3c(c(=O)oc2c1)CCCC3	44.6 (≈ 148 µM)
NC(=O)Cn1nc(C(F)(F)F)c2c1CCCC2	> 37.1
COCCCNC(=O)c1ccc(CSCc2ccc(C)cc2)o1	49.8 (≈ 149 µM)
Cc1cc(NC(=O)COc2ccc(C(C)(C)C)cc2)no1	2 (≈ 6.94 µM)
Cc1[nH]c2ccccc2c1CCNC(=O)c1c(N)no[n+]1[O-]	31.3 (≈ 104 µM)
NC(=O)/C(=C/c1cccnc1)NC(=O)c1ccccc1	> 40.1
O=[N+]([O-])c1ccc(Oc2ccc(OCc3ccccc3)cc2)nc1	< 0.3
Cc1cc(C)c2[nH]c(C(=O)Nc3ccc(F)cc3Br)cc2c1	4.2 (≈ 11.6 µM)
OCCNc1nc2ccccc2nc1NCCO	35.2 (≈ 142 µM)
C=CCN1C(=O)C2(OCCCO2)c2cc(CCCC)ccc21	4.5 (≈ 14.9 µM)
Cc1cc(C)nc(Nc2cccc3ccccc23)n1	18.7 (≈ 75 µM)
COc1cccc(C(=O)CC(=O)C(=O)Nc2ccc(C)cc2Cl)c1	8.1 (≈ 23.4 µM)
O=S(=O)(Nc1ncccn1)c1cc(Cl)ccc1Cl	> 45.6
CCC(=O)OC1(c2ccccc2)C(C)CN(C)CC1C.Cl (stereo not given)	> 46.8
CN1C(=O)C(=O)/C(=C(/O)c2ccccc2)C1c1ccccc1 (stereo not given)	> 44

SMILES	solubility kinetic [µg/mL]
O=C(Cn1nc(C(F)F)cc1C1CC1)N1CCCC1	> 40.4
Cc1ccc(C)c(NC(=O)C2CCCN(c3cnccn3)C2)c1 (stereo not given)	1.7 (≈ 5.48 µM)
COC(=O)c1cc(S(=O)(=O)Nc2ccc(C)cn2)c[nH]1	43.9 (≈ 149 µM)
Cn1ccnc1SCC(=O)NCC(=O)Nc1ccc(F)c(F)c1F	> 53.7
COc1ccccc1C1=NOC(COC(=O)c2ccc([N+](=O)[O-])cc2)C1 (stereo not given)	< 0.4
COc1ccc(NC(=O)/C=C/C(=O)O)c([N+](=O)[O-])c1	> 39.9
COc1ccccc1C1N=C(c2ccccc2C)NO1 (stereo not given)	24 (≈ 89.4 µM)
Cc1ccn2cc(-c3ccc(O)c(O)c3)nc2c1.Cl	17.8
O=C(Nc1cccc2ccccc12)N1CCN(c2ncccn2)CC1	> 50
CC1C(=O)C(C)(C)C(=O)OC1c1ccc([N+](=O)[O-])cc1 (stereo not given)	12.4 (≈ 44.7 µM)
O=C(Nc1ccc(Cl)c(S(=O)(=O)N2CCOCC2)c1)c1ccncc1	> 57.3
CC(=O)c1c(C)[nH]c(C(=O)Nc2nc(C)cs2)c1C	4.1 (≈ 14.8 µM)
COc1ccc(CCC(=O)OCC(=O)c2ccc[nH]2)cc1OC	> 47.6
O=[N+]([O-])c1cccc(S(=O)(=O)N2CCN(c3ccccn3)CC2)c1	1.3 (≈ 3.73 µM)
COc1ccccc1C(=O)OCC(=O)NC(=O)NC1CCCC1	> 48.1
CN1CCN(c2ccc(NC(=O)c3cc4ccccc4o3)cc2)CC1	19.6 (≈ 58.4 µM)
N#CCCN(C(=O)COC(=O)CCC(=O)c1cccs1)c1ccccc1	> 55.6
O=C(COC(=O)/C=C/c1ccc(OC(F)F)cc1)Nc1ccc2[nH]c(=O)[nH]c2c1	5.3 (≈ 13.1 µM)
CC(NC(=O)COC(=O)C1CC1C)c1ccccc1 (stereo not given)	> 39.2
O=C1/C(=C\c2ccc(O)c(O)c2)N=C2CCCCCN12	> 40.8
CC(C)(C)N1CC(C(=O)O)CC1=O (stereo not given)	> 27.8
CC(C)c1cccc(C(C)C)c1OCCCCCN1CCOCC1	33.4 (≈ 100 µM)
COc1ccccc1C1CC(=O)NC(C)=C1C(=O)OC(C)C (stereo not given)	28.4 (≈ 93.6 µM)
Cc1ccc(NC(=O)CSc2ccc3c(c2)OCCO3)nc1	> 47.5

SMILES	solubility kinetic [µg/mL]
c1ccc(-c2cc(-c3ccccc3)on2)cc1	< 0.5
CN(C)c1nc(N)ncc1-c1ccc(Oc2ccccc2)cc1	< 0.2
Cc1ccc(S(=O)(=O)NCC(=O)OCC(=O)Nc2cccc(S(=O)(=O)N3CCOCC3)c2)cc1	> 76.7
CC(Sc1nncn1C)C(=O)Nc1ccc(N2CCCCC2)cc1 (stereo not given)	> 51.8
Cc1cccc(N2CCN(C(=O)CCc3nc4ccccc4c(=O)[nH]3)CC2)c1C	2 (≈ 5.12 µM)
Cc1ccc(S(=O)(=O)N2CCCCC2)cc1C(=O)NCc1ccc(S(N)(=O)=O)cc1	2.8 (≈ 6.2 µM)
C=CCc1cccc(CNc2nc3ccccc3n2C)c1O	0.3 (≈ 1.02 µM)
CCOC(=O)c1ccccc1CN1C(=O)c2ccccc2S1(=O)=O	< 0.7
COc1ccc(C(=O)N2CCC(O)(c3ccc(Cl)cc3)CC2)cc1OC	> 56.4
O=S(=O)(c1ccc(F)cc1)N1CCN(CCOc2ccccc2)CC1	41.1 (≈ 113 µM)
COc1cc2c(cc1OC)C(c1ccccc1Br)NC(=O)C2 (stereo not given)	> 54.3
CC[N+](CC)(CC)CC(=O)Nc1c(C)cccc1C.[Br-]	> 51.5
COc1ccc(NC(=O)COC(=O)c2ccc3c(c2)OCO3)c(OC)c1	1.9 (≈ 5.29 µM)
CC(C)C(NC(=O)CN1C(=O)c2cccc3cccc1c23)C(C)C	2.1 (≈ 6.47 µM)
CCOC(=O)c1csc(COc2ccccc2Cl)n1	2.9 (≈ 9.74 µM)
CC1(c2cccc(Br)c2)NC(=O)NC1=O (stereo not given)	> 40.4
CN(C)c1cccc2cccc(N(C)C)c12	31.2 (≈ 146 µM)
O=C(NC(=S)Nc1ccccc1CO)C1CCCCC1	> 43.9
Cc1cc(NC(=O)CN2CCC(C)CC2)no1.O=C(O)C(=O)O	> 49.1
Cc1ncn2cc(-c3ccc(Cl)cc3Cl)[nH]c(=O)c12	2.8 (≈ 9.52 µM)
O=c1c2ccccc2nc(/C=C/c2cc(Br)ccc2O)n1CCO	6.1 (≈ 15.8 µM)
NC(=O)c1ccc(OCC(=O)N2CCNC2=O)cc1	> 39.5
COc1ccc(-c2nc(NC(C)=O)sc2-c2ccccc2)cc1	4 (≈ 12.3 µM)
O/N=C/c1cc(Br)cs1	16.9 (≈ 82 µM)

SMILES	solubility kinetic [µg/mL]
CC1CCCC(NC(=O)COC(=O)[C@@H](NC(=O)c2ccc(F)cc2)C(C)C)C1C (stereo not given in full)	8.7 (≈ 21.4 µM)
Cc1cccc(CNC(=O)C2CCC(=O)N(C3CCCCCC3)C2)c1 (stereo not given)	> 51.4
O=C(Nc1ccccc1O)c1ccc(NC(=O)C2CC2)cc1	1.9 (≈ 6.41 µM)
O=C(Nc1nccs1)c1cc([N+](=O)[O-])ccc1Cl	3.7 (≈ 13 µM)
CC(=O)c1c(-c2ccc(Cl)cc2Cl)noc1C	17.5 (≈ 64.8 µM)
CN(O)/C=N/C(=S)Nc1ccc(Cl)cc1Cl	38.4 (≈ 138 µM)
CC1CCCN(Cc2csc(N)n2)C1 (stereo not given)	> 31.7
Cc1ccc(CNc2cc(C(=O)O)ccc2Cl)s1	> 42.3
O=C(CCCc1ccccc1)NCCCc1ccccc1	33 (≈ 117 µM)
Cc1cc(Br)cc(Cl)c1OC(=O)c1ccncc1	9.5 (≈ 29.1 µM)
CC1C/C(=N\NC(=O)c2cccnc2)CC(C)(C)C1 (stereo not given)	> 38.9
O=C(Nc1ccc2c(c1)OCCO2)c1ccoc1	35.7 (≈ 146 µM)
COCCn1c(/C=C/c2ccccc2)nc2ccccc21	> 41.8
O=C1CCC/C1=C\Nc1ccc(Cl)c([N+](=O)[O-])c1	7.2 (≈ 27 µM)
Cc1ccc(NC(=O)CN2C(=O)S/C(=C/c3ccncc3)C2=O)cc1	2.2 (≈ 6.23 µM)
Cc1ccc(C(=O)N/N=C\c2ccccn2)cn1	> 36
O=C(NC1CCC(O)CC1)c1cccc2cccnc12 (stereo not given)	> 40.5
Cc1ccc(C(=O)Nc2ccncc2)c(Cl)c1	> 37
Cc1nc(-c2ccc(C#N)cc2)cs1	13.5 (≈ 67.4 µM)
Cc1c(C(=O)N(C)Cc2cccc(F)c2)oc2c(Cl)cccc12	3.6 (≈ 10.9 µM)
CC(=O)/C(=C(/O)c1ccccc1)c1nc2ccccc2[nH]1	1.4 (≈ 5.03 µM)
COc1ccc(CCNC(=O)COC(=O)c2cnc(Cl)c(Cl)c2)cc1	5.4 (≈ 14.1 µM)
CSc1ccccc1NC(=O)C1=COCCO1	> 37.7
COc1cccc(N/C=C/C(=O)c2ccc(C)cc2)c1	2.4 (≈ 8.98 µM)

SMILES	solubility kinetic [µg/mL]
O=C(NCCN1CCOCC1)c1ccc(Cl)c(Cl)c1	43.5 (≈ 143 µM)
Cc1nn(-c2ccccc2)c2nc(N)c(C(N)=O)cc12	> 40.1
CCOc1ccc(NC(=O)CN2C(=O)CSC2=O)cc1	> 44.1
NS(=O)(=O)c1ccc(NC(=O)c2ccc(OCC3CCCO3)cc2)cc1 (stereo not given)	13 (≈ 34.5 µM)
C=CCN=C1S/C(=C\c2ccc(N(C)C)cc2)C(=O)N1CC=C	5.5 (≈ 16.8 µM)
Cc1cccc(C)c1NC(=O)C(C)N1CCCC1 (stereo not given)	> 37
O=C(Nc1ccccc1F)NC1CCCCCCC1	6.9 (≈ 26.1 µM)
Cc1ccc2nc(NS(=O)(=O)c3cn(C)nc3C)sc2c1	> 48.4
CS/C(N)=N/C(=S)Nc1cccc(Cl)c1	31.4 (≈ 121 µM)
COc1ccc(Br)cc1CNCCc1ccc2c(c1)OCO2	52.3 (≈ 144 µM)
COC(=O)c1cc(C)ccc1OCc1ccc([N+](=O)[O-])cc1	< 0.6
Cc1ccc(N2C(=O)CC(C)CC2=O)cc1	> 32.6
O=C(COC(=O)c1cccnc1Cl)Nc1ccc(S(=O)(=O)N2CCOCC2)cc1	57.5 (≈ 131 µM)
O=C(/C=C/c1ccco1)Oc1cccc2cccnc12	27.1 (≈ 102 µM)
COCCNC(=O)/C(C#N)=C/c1cccs1	> 35.4
Cc1ccc(-c2nc(C#N)c(N3CCC(C(N)=O)CC3)o2)cc1	1.6 (≈ 5.16 µM)
O=C(N/N=C/c1ccncc1)C12CC3CC(CC(C3)C1)C2	> 42.5
CC1(C)C(=O)Nc2ccccc2N1C(=O)COC(=O)c1cc(Cl)cc(Cl)c1	2.8 (≈ 6.88 µM)
COc1ccccc1OCC(=O)Nc1ccc2c(c1)OCCO2	39.1 (≈ 124 µM)
CCOc1c(Cl)cc(CNCc2ccncc2)cc1OC.Cl	46.1
COc1cc(NC(=O)Cc2ccccc2)c(C(=O)O)cc1OC	43.5 (≈ 138 µM)
CCOc1ccc([N+](=O)[O-])cc1CNC1CCCCCCC1.Cl	> 51.4
Nc1cc(Cl)ccc1C(=O)OCC(=O)NCC1CCCO1 (stereo not given)	> 46.9
O=C(CN1CCN(Cc2ccccc2)CC1)NCCc1ccccc1	47.3 (≈ 140 µM)
